In the supplement of paper PMC8671470:

How the values were obtained:
Conditions in all cases: 72 h
K-562 = experiment: cell viability (% survival relative to DMSO control, bortezomib = 0%); higher = less cytotoxic
Method in brief: (§1)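 Reported values are percent survival from duplicate wells, averaged. Fifteen myeloid leukaemia cell lines were treated in 384-well plates with compounds at 1, 10, 100, 1000 or 10000 nM for 72 h at 37 °C in 5% CO2. Signals from CellTiter-Glo luminescence were scaled with vehicle as 100% and a 10 µM positive control as 0%.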

Mono-Mac-6 = experiment: as above
Method in brief: as §1

KU-812 = experiment: as above
Method in brief: as §1

BV-173 = experiment: as above
Method in brief: as §1

KCL-22 = experiment: as above
Method in brief: as §1

MV4-11 = experiment: as above
Method in brief: as §1

ML-2 = experiment: as above
Method in brief: as §1

KG-1 = experiment: as above
Method in brief: as §1

THP-1 = experiment: as above
Method in brief: as §1

LAMA-84 = experiment: as above
Method in brief: as §1

HL-60 [1] = experiment: as above
Method in brief: as §1

MOLM-13 = experiment: as above
Method in brief: as §1

NOMO-1 [2] = experiment: as above
Method in brief: as §1

HEL = experiment: as above
Method in brief: as §1

SHI-1 = experiment: as above
Method in brief: as §1

HL-60 [3] = experiment: area under dose-response curve (viability, 1 nM-10 uM) (fraction (0-1)); higher = more sensitive
Method in brief: (§2)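 Area under the curve, where listed, was derived from four-parameter log-logistic fits with drc and PharmacoGx. These fits used CellTiter-Glo viability from HL-60 cells in RPMI 1640 with 10% FBS, normalised to DMSO wells and wells holding 10 μM proteasome inhibitor. The full library was rescreened on 384-well plates in duplicate at five tenfold concentrations, 1–10,000 nM, with DMSO or 100 nM of one of three metabolic inhibitors, for 72 h at 37 °C, 5% CO2.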

NOMO-1 [4] = test system: NOMO-1
Method in brief: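 Each of fifteen myeloid leukaemia cell lines was seeded in RPMI 1640 at a density titrated to its linear growth range. The cells were incubated for 72 h at 37 °C and 5% CO2 with compounds at five tenfold doses from 1 to 10,000 nM, in duplicate. After ATP luminescence was normalised to vehicle and to a positive control at 10 µM, four-parameter log-logistic curves were fitted. These curves gave the IC50.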

HL-60 [5] = experiment: cell viability (% survival relative to DMSO control); higher = less cytotoxic
Method in brief: as §2

O=C(Cc1cccc(OC(F)(F)F)c1)Nc1ccc(CCCCc2nnc(NC(=O)Cc3ccccn3)s2)nn1 [CB-839]
Conditions | area under dose-response curve, co-treatment: AZD3965 100 nM | area under dose-response curve, co-treatment: DMSO vehicle | area under dose-response curve, co-treatment: GSK2194069 100 nM | area under dose-response curve, co-treatment: pictilisib 100 nM | cell viability, 1 nM [%] | cell viability, 10 nM [%] | cell viability, 100 nM [%] | cell viability, 1000 nM [%] | cell viability, 10000 nM [%]
BV-173 | – | – | – | – | 133 | 82.2 | 53.7 | 59.8 | 18.5
HEL | – | – | – | – | 117 | 85.6 | 99.3 | 73.7 | 64.8
HL-60 [1] | – | – | – | – | 73.4 | 114 | 85.6 | 40.6 | 50.2
HL-60 [3] | 0.0553 | < 0.0301 | 0.0569 | 0.0991 | – | – | – | – | –
K-562 | – | – | – | – | 145 | 105 | 85.3 | 86 | 77.7
KCL-22 | – | – | – | – | 116 | 90.4 | 79.5 | 55.4 | 43.8
KG-1 | – | – | – | – | 98.4 | 81.7 | 80.1 | 43 | 45.4
KU-812 | – | – | – | – | 101 | 81.8 | 72.2 | 67.2 | 66.4
LAMA-84 | – | – | – | – | 116 | 85.8 | 66.5 | 66.3 | 58.4
ML-2 | – | – | – | – | 111 | 89.8 | 94.3 | 91.4 | 89.9
MOLM-13 | – | – | – | – | 123 | 102 | 116 | 59.8 | 73.7
MV4-11 | – | – | – | – | 108 | 86 | 71.2 | 48.1 | 51.2
Mono-Mac-6 | – | – | – | – | 102 | 84.5 | 85 | 78.3 | 82
NOMO-1 [2] | – | – | – | – | 103 | 91.4 | 76.5 | 79.2 | 68.2
SHI-1 | – | – | – | – | 109 | 103 | 99.7 | 74.9 | 68.4
THP-1 | – | – | – | – | 99.4 | 96.7 | 88.9 | 82.9 | 83.7

Conditions | IC50 (cell viability) [µM]
NOMO-1 [4] | > 10

cell viability [%], HL-60 [5]
Conditions | 0.001 µM | 0.01 µM | 0.1 µM | 1 µM | 10 µM
co-treatment: AZD3965 100 nM | 105 | 103.64 | 103 | 93.2 | 71.4
co-treatment: DMSO vehicle | 97.2 | 102 | 97.9 | 93.6 | 88.7
co-treatment: GSK2194069 100 nM | 103 | 94.8 | 97.4 | 94.1 | 77.9
co-treatment: pictilisib 100 nM | 100.52 | 87.5 | 78.3 | 71.08 | 54

CN(C)C(=N)NC(=N)N [Metformin]
Conditions | area under dose-response curve, co-treatment: AZD3965 100 nM | area under dose-response curve, co-treatment: DMSO vehicle | area under dose-response curve, co-treatment: GSK2194069 100 nM | area under dose-response curve, co-treatment: pictilisib 100 nM | cell viability, 1 nM [%] | cell viability, 10 nM [%] | cell viability, 100 nM [%] | cell viability, 1000 nM [%] | cell viability, 10000 nM [%]
BV-173 | – | – | – | – | 107 | 90.3 | 92 | 100 | 89.2
HEL | – | – | – | – | 110 | 94.3 | 107 | 102 | 97.3
HL-60 [1] | – | – | – | – | 98.2 | 93.8 | 109 | 102 | 84.3
HL-60 [3] | < 0.0301 | < 0.0301 | < 0.0301 | < 0.0301 | – | – | – | – | –
K-562 | – | – | – | – | 91.9 | 102 | 97.5 | 103 | 91.1
KCL-22 | – | – | – | – | 98.2 | 98.9 | 98.4 | 103 | 88.1
KG-1 | – | – | – | – | 97.4 | 97.3 | 101 | 100 | 96.3
KU-812 | – | – | – | – | 102 | 95.5 | 96.2 | 110 | 88.5
LAMA-84 | – | – | – | – | 95.6 | 87.9 | 97.9 | 97.7 | 92.9
ML-2 | – | – | – | – | 102 | 101 | 99.2 | 101 | 88.5
MOLM-13 | – | – | – | – | 105 | 91.5 | 117 | 102 | 83.5
MV4-11 | – | – | – | – | 91.2 | 79.7 | 81.7 | 107 | 84.7
Mono-Mac-6 | – | – | – | – | 113 | 89.7 | 95.5 | 97.9 | 91.8
NOMO-1 [2] | – | – | – | – | 109 | 93.6 | 95.4 | 97.1 | 92.2
SHI-1 | – | – | – | – | 103 | 98.3 | 104 | 106 | 93.9
THP-1 | – | – | – | – | 99.4 | 95.4 | 93 | 101 | 94.4

Conditions | IC50 (cell viability) [µM]
NOMO-1 [4] | > 10

cell viability [%], HL-60 [5]
Conditions | 0.001 µM | 0.01 µM | 0.1 µM | 1 µM | 10 µM
co-treatment: AZD3965 100 nM | 94.9 | 99 | 103 | 94.9 | 100
co-treatment: DMSO vehicle | 101.9 | 95.8 | 102.3 | 95.9 | 96.73
co-treatment: GSK2194069 100 nM | 98.7 | 98 | 109 | 94 | 106
co-treatment: pictilisib 100 nM | 92 | 111 | 120 | 96.7 | 104

Cc1cc(O)c2c(c1)C(=O)c1cc(O)cc(O)c1C2=O [Emodin]
Conditions | area under dose-response curve, co-treatment: AZD3965 100 nM | area under dose-response curve, co-treatment: DMSO vehicle | area under dose-response curve, co-treatment: GSK2194069 100 nM | area under dose-response curve, co-treatment: pictilisib 100 nM | cell viability, 1 nM [%] | cell viability, 10 nM [%] | cell viability, 100 nM [%] | cell viability, 1000 nM [%] | cell viability, 10000 nM [%]
BV-173 | – | – | – | – | 88.8 | 111 | 99.8 | 74.6 | 89.8
HEL | – | – | – | – | 105 | 114 | 98.5 | 89.8 | 115
HL-60 [1] | – | – | – | – | 90.5 | 97.8 | 124 | 88.2 | 109
HL-60 [3] | < 0.0301 | < 0.0301 | < 0.0301 | < 0.0301 | – | – | – | – | –
K-562 | – | – | – | – | 109 | 94.2 | 102 | 102 | 112
KCL-22 | – | – | – | – | 103 | 97.9 | 96.6 | 98.5 | 96
KG-1 | – | – | – | – | 90.7 | 89.7 | 96.1 | 97.3 | 94.9
KU-812 | – | – | – | – | 95.1 | 100 | 104 | 89.8 | 80.8
LAMA-84 | – | – | – | – | 102 | 100 | 102 | 96.5 | 112
ML-2 | – | – | – | – | 97.8 | 104 | 101 | 89.5 | 98.2
MOLM-13 | – | – | – | – | 67 | 101 | 112 | 95.2 | 71.4
MV4-11 | – | – | – | – | 92.8 | 85.6 | 93 | 99 | 100
Mono-Mac-6 | – | – | – | – | 92.1 | 106 | 97.3 | 102 | 81.7
NOMO-1 [2] | – | – | – | – | 99.1 | 100 | 103 | 104 | 112
SHI-1 | – | – | – | – | 88.6 | 97.8 | 98.3 | 94.5 | 93.5
THP-1 | – | – | – | – | 90.6 | 97.3 | 106 | 90.5 | 105

Conditions | IC50 (cell viability) [µM]
NOMO-1 [4] | > 10

cell viability [%], HL-60 [5]
Conditions | 0.001 µM | 0.01 µM | 0.1 µM | 1 µM | 10 µM
co-treatment: AZD3965 100 nM | 101 | 97.9 | 101 | 97.585 | 98.7
co-treatment: DMSO vehicle | 102 | 100 | 101 | 102.6 | 103.5
co-treatment: GSK2194069 100 nM | 92.5 | 76.2 | 94 | 74.7 | 96.7
co-treatment: pictilisib 100 nM | 96.6 | 107 | 97.4 | 89.4 | 97.6
